Test results from patent publication US8722730B2, “5-membered heterocyclic compound” (Research Foundation Itsuu Laboratory, priority 2007, dated 2014).
Read-outs that look alike come from different tables or passages of the source.

Columns and labels:
[1] = cited from earlier work
[2] = tested on: human acute promyelocytic leukemia cell strain HL-60; assay: Differentiation induction of HL-60 cells, NBT-reducing ability; format: cell-based; conditions: 96 h, cultured four days, NBT reduction, read-out: ED50 (the source's name)
Protocol: Cells of human acute promyelocytic leukemia cell strain HL-60 were cultured in a CO2 incubator (5% CO2, 37° C.) using the RPMI medium containing 5% FBS. Differentiation inducing action of the compounds of the present invention on the HL-60 cells were evaluated on the basis of ability to reduce nitroblue tetrazolium (NBT) determined by observing differentiation from promyelocytic cells into granulocytic cells as an index. As positive control of retinoid compounds, retinoic acid and Am80 [4-[(5,6,7,8-tetrahydro-5,5,8,8-tetramethyl-2-naphthalenyl)carbamoyl]benzoic acid] were used. The cells that entered into the logarithmic phase and reached a substantially confluent state were centrifuged at 1000 rpm for 5 minutes, and the culture supernatant was removed. The cell pellet was suspended in fresh RPMI medium containing 5% FBS at a density of 8.0×10^4 cells/ml, then the suspension was added with a test compound dissolved in DMSO at an intended concentration, and the cells were cultured for four days and then used for the experiment. The samples were prepared so as to have the same DMSO concentration.
Cell count of the cells after the culture for a predetermined period was determined by a cell counting method using a blood cell counting chamber. The NBT-reducing ability was obtained as follows. NBT was dissolved in a phosphate buffered saline (PBS(−)) at a concentration of 0.2%, and the solution was added with an equivalent volume of the RPMI medium containing 5% FBS. The mixture was added with phorbol 12-myristate 13-acetate (tPA) at a concentration of 0.2 μM (about 200 ng) to prepare a reagent solution. The collected cells were centrifuged at 1000 rpm for 5 minutes, the supernatant was removed, and the remained cell pellet was added with the reagent solution. The mixture was incubated on a water bath at 37° C. for 20 minutes, and then NBT-reduced stained positive cells were counted by using the counting chamber to calculate a differentiation induction ratio.

## CC(C)(C)c1ccc(C(=O)Nc2ccc(C(=O)O)cc2)o1 [4-[(5-t-butylfuran-2-carbonyl)amino]benzoic acid]
[1]; at 3.7 μM
  differentiation induction ratio: 26%
[1]; at 19 μM
  differentiation induction ratio: 42%
[1]; at 74 μM
  differentiation induction ratio: 60%

## CC(C)(C)c1ccc(C(=O)Nc2ccc(C(=O)O)cc2)s1 [4-[(5-t-butylthiophene-2-carbonyl)amino]benzoic acid]
[1]; at 0.22 μM
  differentiation induction: no differentiation induction
[1]; at 1.1 μM
  differentiation induction ratio: 22%
[1]; at 5.6 μM
  differentiation induction ratio: 23%

## CC1(C)CCC(C)(C)c2cc(NC(=O)c3ccc(C(=O)O)cc3)ccc21 [Am80, 4-[(5,6,7,8-tetrahydro-5,5,8,8-tetramethyl-2-naphthalenyl)carbamoyl]benzoic acid, reference compound]
[2]
  EC50: 0.0016 µM

## CC(C)c1cc(C(=O)Nc2ccc(C(=O)O)cc2)oc1C(C)C [Compound 1, 4-[(4,5-Diisopropylfuran-2-carbonyl)amino]benzoic acid]
[2]
  EC50: 0.0011 µM
other
  melting point: 120 to 121 °C

## CC(C)c1cc(C(=O)Nc2ccc(OCC(=O)O)cc2)oc1C(C)C [Compound 3, 4-[(4,5-Diisopropylfuran-2-carbonyl)amino]phenyloxyacetic acid]
other
  melting point: 83 to 85 °C

## CC(C)c1cc(C(=O)Nc2ccc(CC(=O)O)cc2)oc1C(C)C [Compound 4, 4-[(4,5-Diisopropylfuran-2-carbonyl)amino]phenylacetic acid]
other
  melting point: 154 to 156 °C

## CC(C)c1cc(C(=O)Nc2cccc(C(=O)O)c2)oc1C(C)C [Compound 5, 3-[(4,5-Diisopropylfuran-2-carbonyl)amino]benzoic acid]
other
  melting point: 243.5 to 245 °C

## CC(C)c1cc(C(=O)Nc2ccc(CCC(=O)O)cc2)oc1C(C)C [Compound 6, 3-[4-[(4,5-Diisopropylfuran-2-carbonyl)amino]phenyl]propionic acid]
[2]
  EC50: > 1 µM
other
  melting point: 139 to 141 °C

## CC(C)c1cc(C(=O)Nc2ccc(C(=O)O)nc2)oc1C(C)C [Compound 7, 5-[(4,5-Diisopropylfuran-2-carbonyl)amino]pyridine-2-carboxylic acid]
[2]
  EC50: 0.0131 µM
other
  melting point: 106 to 107.5 °C

## CC(C)c1cc(C(=O)Nc2ccc(C(=O)O)cn2)oc1C(C)C [Compound 8, 6-[(4,5-Diisopropylfuran-2-carbonyl)amino]pyridine-3-carboxylic acid]
[2]
  EC50: 0.0019 µM
other
  melting point: 278 to 279 °C

## CC(C)c1cc(C(=O)Nc2ccc(C(=O)O)s2)oc1C(C)C [Compound 9, 5-[(4,5-Diisopropylfuran-2-carbonyl)amino]thiophene-2-carboxylic acid]
[2]
  EC50: 0.0729 µM
other
  melting point: 227 to 228.5 °C

## CC(C)c1cc(/C=C/C(=O)Nc2ccc(C(=O)O)cc2)oc1C(C)C [Compound 10, 4-[[3-(4,5-Diisopropyl-2-furanyl)acryloyl]amino]benzoic acid]
[2]
  EC50: 0.166 µM
other
  melting point: 131 to 133 °C

## C/C(=C\C(=O)Nc1ccc(C(=O)O)cc1)c1cc(C(C)C)c(C(C)C)o1 [Compound 11, 4-[[3-(4,5-Diisopropyl-2-furanyl)crotonoyl]amino]benzoic acid]
[2]
  EC50: 0.0747 µM
other
  melting point: 232.5 to 235 °C

## CC(C)c1cc(C(=O)Nc2ccc(C(=O)O)cc2)[nH]c1C(C)C [Compound 12, 4-[(4,5-Diisopropylpyrrole-2-carbonyl)amino]benzoic acid]
[2]
  EC50: 0.0404 µM
other
  melting point: 230 to 230.5 °C

## CC(C)c1cc(C(C)C)c(C(=O)Nc2ccc(C(=O)O)cc2)[nH]1 [Compound 13, 4-[(3,5-Diisopropylpyrrole-2-carbonyl)amino]benzoic acid]
other
  melting point: 225 to 226 °C

## CC(C)c1[nH]c(C(=O)Nc2ccc(C(=O)O)cc2)c(C(C)C)c1C(C)C [Compound 14, 4-[(3,4,5-Triisopropylpyrrole-2-carbonyl)amino]benzoic acid]
[2]
  EC50: > 1 µM
other
  melting point: > 300 °C

## CC(C)c1cc(C(=O)Nc2ccc(C(=O)O)cc2)sc1C(C)C [Compound 15, 4-[(4,5-Diisopropylthiophene-2-carbonyl)amino]benzoic acid]
[2]
  EC50: 0.0018 µM
other
  melting point: 219 to 221 °C

## CC(C)c1cc(C(=O)Nc2ccc(C(=O)O)nc2)sc1C(C)C [Compound 16, 5-[(4,5-Diisopropylthiophene-2-carbonyl)amino]pyridine-2-carboxylic acid]
other
  melting point: 216 to 217 °C

## CC(C)c1cc(C(=O)Nc2ccc(C(=O)O)cn2)sc1C(C)C [Compound 17, 6-[(4,5-Diisopropylthiophene-2-carbonyl)amino]pyridine-3-carboxylic acid]
other
  melting point: > 300 °C

## CC(C)c1cc(C(=O)Nc2ccc(C(=O)O)c(F)c2)oc1C(C)C [Compound 22, 2-Fluoro-4-[(4,5-diisopropylfuran-2-carbonyl)amino]benzoic acid]
other
  melting point: 151 to 152 °C

## CC(C)c1cc(C(=O)Nc2ccc(C(=O)O)c(Cl)c2)oc1C(C)C [Compound 23, 2-Chloro-4-[(4,5-diisopropylfuran-2-carbonyl)amino]benzoic acid]
other
  melting point: 152 to 153 °C

## CC(C)c1cc(C(=O)Nc2ccc(C(=O)O)c(O)c2)oc1C(C)C [Compound 24, 2-Hydroxy-4-[(4,5-diisopropylfuran-2-carbonyl)amino]benzoic acid]
other
  melting point: 179 to 180 °C

## COc1cc(NC(=O)c2cc(C(C)C)c(C(C)C)o2)ccc1C(=O)O [Compound 25, 2-Methoxy-4-[(4,5-diisopropylfuran-2-carbonyl)amino]benzoic acid]
other
  melting point: 136 to 137 °C

## CC(C)c1cc(/C=C/C(=O)N(C)c2ccc(C(=O)O)cc2)oc1C(C)C [Compound 27, 4-[[3-(4,5-Diisopropyl-2-furanyl)acryloyl]methylamino]benzoic acid]
other
  melting point: 213 to 214 °C

## CC(C)c1cc(/C=C/C(=O)Nc2cccc(C(=O)O)c2)oc1C(C)C [Compound 28, 3-[[3-(4,5-Diisopropyl-2-furanyl)acryloyl]amino]benzoic acid]
other
  melting point: 220.5 to 221.5 °C

## CC(C)c1cc(/C=C/C(=O)N(C)c2cccc(C(=O)O)c2)oc1C(C)C [Compound 29, 3-[[3-(4,5-Diisopropyl-2-furanyl)acryloyl]methylamino]benzoic acid]
other
  melting point: 187.5 to 189 °C

## CC(C)c1cc(C(=O)Nc2ccc(C(=O)O)o2)oc1C(C)C [Compound 35, 5-[(4,5-Diisopropylfuran-2-carbonyl)amino]-2-furancarboxylic acid]
other
  melting point: 169 to 171 °C

## CC(C)c1cc(C(=O)Nc2ccc3[nH]c(C(=O)O)cc3c2)oc1C(C)C [Compound 36, 5-[(4,5-Diisopropylfuran-2-carbonyl)amino]-2-indolecarboxylic acid]
other
  melting point: 240 to 243 °C

## CC(C)c1cc(C(=O)Nc2ccc(C(=O)O)c(F)c2)sc1C(C)C [Compound 39, 2-Fluoro-4-[(4,5-diisopropylthiophene-2-carbonyl)amino]benzoic acid]
other
  melting point: 133 to 135 °C

## CC(C)c1cc(C(=O)Nc2ccc(C(=O)O)c(Cl)c2)sc1C(C)C [Compound 40, 2-Chloro-4-[(4,5-diisopropylthiophene-2-carbonyl)amino]benzoic acid]
other
  melting point: 222 to 223 °C

## CC(C)c1cc(C(=O)Nc2ccc(C(=O)O)c(O)c2)sc1C(C)C [Compound 41, 2-Hydroxy-4-[(4,5-diisopropylthiophene-2-carbonyl)amino]benzoic acid]
other
  melting point: 129 to 130 °C

## COc1cc(NC(=O)c2cc(C(C)C)c(C(C)C)s2)ccc1C(=O)O [Compound 42, 2-Methoxy-4-[(4,5-diisopropylthiophene-2-carbonyl)amino]benzoic acid]
other
  melting point: 213 to 214 °C

## CC(C)c1cc(C(=O)Nc2cc(F)c(C(=O)O)c(F)c2)sc1C(C)C [Compound 43, 2,6-Difluoro-4-[(4,5-diisopropylthiophene-2-carbonyl)amino]benzoic acid]
other
  melting point: 218 to 219 °C
